Tests used:
CDK2 = molecular target: T1, CDK2 (Homo sapiens, UniProt P24941); assay: CDK protein degradation activity (Western blotting), CDK2; type: cell-based; conditions: MDA-MB-231 cells, 16 hours, Western blot
T1 construct: endogenous in cells; host or cells: MDA-MB-231
Method in brief: (§1)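 CDK2 and CDK9 protein levels measured by Western blot with densitometry, using tubulin as loading reference. Cells were MDA-MB-231, exposed for 16 h to 100 nM, 1 μM or 10 μM compound or to DMSO.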

CDK9 = molecular target: T2, CDK9 (Homo sapiens, UniProt P50750); assay: CDK protein degradation activity (Western blotting), CDK9; type: cell-based; conditions: MDA-MB-231 cells, 16 hours, Western blot
T2 construct: endogenous in cells; host or cells: MDA-MB-231
T2 sequence (P50750 whole entry): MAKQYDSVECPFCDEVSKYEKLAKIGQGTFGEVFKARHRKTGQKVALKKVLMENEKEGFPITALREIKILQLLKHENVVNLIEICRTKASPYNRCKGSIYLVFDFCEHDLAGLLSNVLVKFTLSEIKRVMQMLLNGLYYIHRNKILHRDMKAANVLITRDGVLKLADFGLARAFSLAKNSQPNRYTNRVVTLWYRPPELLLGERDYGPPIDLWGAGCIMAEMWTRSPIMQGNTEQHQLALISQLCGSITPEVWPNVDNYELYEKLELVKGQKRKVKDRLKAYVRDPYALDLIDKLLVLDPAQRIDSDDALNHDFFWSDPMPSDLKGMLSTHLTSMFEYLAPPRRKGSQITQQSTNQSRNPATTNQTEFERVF
Method in brief: as §1

| Structure (SMILES) | Enzyme degradation CDK2 (% remaining) @ 0.1 μM (CDK2) | Enzyme degradation CDK2 (% remaining) @ 1 μM (CDK2) | Enzyme degradation CDK2 (% remaining) @ 10 μM (CDK2) | Enzyme degradation CDK9 (% remaining) @ 0.1 μM (CDK9) | Enzyme degradation CDK9 (% remaining) @ 1 μM (CDK9) | Enzyme degradation CDK9 (% remaining) @ 10 μM (CDK9) |
| --- | --- | --- | --- | --- | --- | --- |
| O=C1CCC(n2nnc3ccc(N4CCC(CCN5CCN(c6ccc(Nc7ncnc8c7ncn8[C@H]7C[C@@H](NC(=O)c8c(Cl)cccc8Cl)C7)cc6)CC5)CC4)cc3c2=O)C(=O)N1 (stereo partly drawn) [Compound 407, 2,6-dichloro-N-((1s,3s)-3-(6-((4-(4-(2-(1-(3-(2,6-dioxopiperidin-3-yl)-4-oxo-3,4-dihydrobenzo[d][1,2,3]triazin-6-yl)piperidin-4-yl)ethyl)piperazin-1-yl)phenyl)amino)-9H-purin-9-yl)cyclobutyl)benzamide] | 60/60/60% | 60/60/60% | 60/60/60% | 0/0/0% | 0/0/0% | 0/0/0% |
| COc1ccc(C(=O)N2CCC(CCCN3CCN(c4ccc(Nc5ncnc6c5ncn6[C@H]5C[C@@H](NC(=O)Cc6ccccc6)C5)cc4)CC3)CC2)cc1N1CCC(=O)NC1=O [Compound 257, N-((1s,3s)-3-(6-((4-(4-(3-(1-(3-(2,4-dioxotetrahydropyrimidin-1(2H)-yl)-4-methoxybenzoyl)piperidin-4-yl)propyl)piperazin-1-yl)phenyl)amino)-9H-purin-9-yl)cyclobutyl)-2-phenylacetamide] | 0% | 20% | 20% | 80% | 50% | 50% |
| O=C1CC[C@H](N2C(=O)c3ccc(OCC(=O)N4CCC(CN5CCC(CNc6ncnc7c6ncn7C6CC(NC(=O)c7c(Cl)cccc7Cl)C6)CC5)CC4)cc3C2=O)C(=O)N1 (stereo partly drawn) [Compound 169, 2,6-dichloro-N-((1s,3s)-3-(6-(((1-((1-(2-((2-(2,6-dioxopiperidin-3-yl)-1,3-dioxoisoindolin-5-yl)oxy)acetyl)piperidin-4-yl)methyl)piperidin-4-yl)methyl)amino)-9H-purin-9-yl)cyclobutyl)benzamide] | 80% | 70% | 70% | 10% | 0% | 0% |
| Cc1cccc(C(=O)NC2CC(n3cnc4c(Nc5ccc(N6CCN(CC7CCN(C(=O)COc8ccc([C@@H]9CCC(=O)NC9=O)cc8)CC7)CC6)cc5)ncnc43)C2)n1 (stereo partly drawn) [Compound 443, N-((1s,3s)-3-(6-((4-(4-((1-(2-(4-(2,6-dioxopiperidin-3-yl)phenoxy)acetyl)piperidin-4-yl)methyl)piperazin-1-yl)phenyl)amino)-9H-purin-9-yl)cyclobutyl)-6-methylpicolinamide] | 20/20/20% | 20/20/20% | 20/20/20% | 0/0/0% | 0/0/0% | 0/0/0% |
| O=C1CC[C@H](N2C(=O)c3ccc(N4CCC(C(=O)N5CCC(CN6CCN(c7ccc(Nc8ncnc9c8ncn9C8CC(NC(=O)Cc9ccccc9)C8)cc7)CC6)CC5)CC4)cc3C2=O)C(=O)N1 (stereo partly drawn) [Compound 330, N-((1s,3s)-3-(6-((4-(4-((1-(1-(2-(2,6-dioxopiperidin-3-yl)-1,3-dioxoisoindolin-5-yl)piperidin-4-carbonyl)piperidin-4-yl)methyl)piperazin-1-yl)phenyl)amino)-9H-purin-9-yl)cyclobutyl)-2-phenylacetamide] | 60% | 60% | 40% | 0/0/0% | 0/0/0% | 0/0/0% |
| Cc1cccc(C(=O)N[C@H]2C[C@@H](n3cnc4c(NCCC5CCN(CC6CCN(C(=O)CCNc7ccc8c(c7)C(=O)N([C@H]7CCC(=O)NC7=O)C8=O)CC6)CC5)ncnc43)C2)n1 (racemic) [Compound 310, N-((1s,3s)-3-(6-((2-(1-((1-(3-((2-(2,6-dioxopiperidin-3-yl)-1,3-dioxoisoindolin-5-yl)amino)propanoyl)piperidin-4-yl)methyl)piperidin-4-yl)ethyl)amino)-9H-purin-9-yl)cyclobutyl)-6-methylpicolinamide] | 100% | 70% | 100% | 40% | 0% | 0% |
| O=C1CC[C@H](N2C(=O)c3cccc(N4CCC(CN5CCN(c6ccc(Nc7ncnc8c7ncn8C7CC(NC(=O)Cc8ccccc8)C7)cc6)CC5)CC4)c3C2=O)C(=O)N1 (stereo partly drawn) [Compound 178, N-((1s,3s)-3-(6-((4-(4-((1-(2-(2,6-dioxopiperidin-3-yl)-1,3-dioxoisoindolin-4-yl)piperidin-4-yl)methyl)piperazin-1-yl)phenyl)amino)-9H-purin-9-yl)cyclobutyl)-2-phenylacetamide] | 30% | 20% | 20% | 10% | 0% | 0% |
| O=C1CC[C@H](N2C(=O)c3cccc(OCC(=O)N4CCC(CN5CCC(CNc6ncnc7c6ncn7C6CC(NC(=O)Cc7ccccc7)C6)CC5)CC4)c3C2=O)C(=O)N1 (stereo partly drawn) [Compound 182, N-((1s,3s)-3-(6-(((1-((1-(2-((2-(2,6-dioxopiperidin-3-yl)-1,3-dioxoisoindolin-4-yl)oxy)acetyl)piperidin-4-yl)methyl)piperidin-4-yl)methyl)amino)-9H-purin-9-yl)cyclobutyl)-2-phenylacetamide] | 70% | 50% | 50% | 20% | 10% | 0% |
| O=C1CCC(N2C(=O)c3ccc(N4CCC(C(=O)N5CCC(CN6CCC(CCNc7ncnc8c7ncn8[C@H]7C[C@@H](NC(=O)c8c(Cl)cccc8Cl)C7)CC6)CC5)CC4)cc3C2=O)C(=O)N1 (stereo partly drawn) [Compound 400, 2,6-dichloro-N-((1s,3s)-3-(6-((2-(1-((1-(1-(2-(2,6-dioxopiperidin-3-yl)-1,3-dioxoisoindolin-5-yl)piperidin-4-carbonyl)piperidin-4-yl)methyl)piperidin-4-yl)ethyl)amino)-9H-purin-9-yl)cyclobutyl)benzamide] | 30% | 30% | 40% | 0/0/0% | 0/0/0% | 0/0/0% |
| O=C1CC[C@H](N2C(=O)c3cccc(NCC(=O)N4CCC(CN5CCN(c6ccc(Nc7ncnc8c7ncn8[C@H]7C[C@@H](NC(=O)c8c(Cl)cccc8Cl)C7)cc6)CC5)CC4)c3C2=O)C(=O)N1 [Compound 165, 2,6-dichloro-N-((1s,3s)-3-(6-((4-(4-((1-((2-(2,6-dioxopiperidin-3-yl)-1,3-dioxoisoindolin-4-yl)glycyl)piperidin-4-yl)methyl)piperazin-1-yl)phenyl)amino)-9H-purin-9-yl)cyclobutyl)benzamide] | 10/10/10% | 10/10/10% | 10/10/10% | 0/0/0% | 0/0/0% | 0/0/0% |
| O=C1CC[C@H](N2C(=O)c3ccc(NCC(=O)N4CCN(CCCN5CCN(c6ccc(Nc7ncnc8c7ncn8C7CC(NC(=O)Cc8ccccc8)C7)cc6)CC5)CC4)cc3C2=O)C(=O)N1 (stereo partly drawn) [Compound 233, N-((1s,3s)-3-(6-((4-(4-(3-(4-((2-(2,6-dioxopiperidin-3-yl)-1,3-dioxoisoindolin-5-yl)glycyl)piperazin-1-yl)propyl)piperazin-1-yl)phenyl)amino)-9H-purin-9-yl)cyclobutyl)-2-phenylacetamide] | 80% | 80% | 70% | 40% | 0% | 0% |
| O=C1CC[C@H](N2C(=O)c3ccc(N4CCC(CN5CCC(CCNc6ncnc7c6ncn7C6CC(NC(=O)Cc7ccccc7)C6)CC5)CC4)cc3C2=O)C(=O)N1 (stereo partly drawn) [Compound 423, N-((1s,3s)-3-(6-((2-(1-((1-(2-(2,6-dioxopiperidin-3-yl)-1,3-dioxoisoindolin-5-yl)piperidin-4-yl)methyl)piperidin-4-yl)ethyl)amino)-9H-purin-9-yl)cyclobutyl)-2-phenylacetamide] | 30% | 20% | 20% | 20% | 10% | 10% |
| O=C1CC[C@H](n2nnc3ccc(N4CCC(CN5CCC(CCNc6ncnc7c6ncn7C6CC(NC(=O)Cc7ccccc7)C6)CC5)CC4)cc3c2=O)C(=O)N1 (stereo partly drawn) [Compound 410, N-((1s,3s)-3-(6-((2-(1-((1-(3-(2,6-dioxopiperidin-3-yl)-4-oxo-3,4-dihydrobenzo[d][1,2,3]triazin-6-yl)piperidin-4-yl)methyl)piperidin-4-yl)ethyl)amino)-9H-purin-9-yl)cyclobutyl)-2-phenylacetamide] | 30% | 20% | 20% | 30% | 20% | 20% |
